Data taken from patent US7618984B2, “Sulfonamide compound” (Asahi Kasei Pharma Corporation, priority 2005, dated 2009).
Counter-ions that a name gives are not always drawn.

System: rabbit intraocular pressure
Experiment: Rabbit intraocular pressure reduction enhancing action, combination with timolol maleate (Test Example 6-2)
Format: in vivo, Japanese white rabbit
Settings: 0.01 weight % 19-1 compound aqueous solution and/or timolol maleate (Timoptol), 50 μL; difference relative to the control group, 1, 2 and 4 hours
Protocol: As a test compound, the 19-1 compound was dissolved in physiological saline, and the solution was neutralized by addition of sodium hydroxide (pH 7.0 to 8.0) to prepare a 0.01 weight % aqueous solution (19-1 compound aqueous solution). As a drug for combination use, timolol maleate (trade name: Timoptol, Santen Pharmaceutical) was used as an adrenergic receptor β blocker, as the marketed formulation as it was.
A Japanese white rabbit having a body weight of about 2 kg was placed in a positioner and naturalized for one week before the experiment. An opthalmologic local anesthesant (Benoxil) was administered to both eyes, and then intraocular pressure before instillation was measured by using a tonometer (Classic 30, Solan). […] The intraocular pressure thereafter was measured for each group 1, 2 and 4 hours after the second administration of the test compound, and the difference of the measured values at each measurement time for the each group and the control group was considered an intraocular pressure reduction value of each group. The largest difference of the intraocular pressure values relative to the control group among those of the measured values of the measurement times was considered the maximum intraocular pressure reduction value (max ΔIOP) of each drug group.

**Q.** How did the “Max ΔIOP (maximum intraocular pressure reduction value), Table 4” value turn out when CC(C)(C)NC[C@H](O)COc1nsnc1N1CCOCC1 [timolol maleate, reference compound] was run?
**A.** 1.9 mmHg
